Laboratory results from PubChem BioAssay (NCI).
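Dose response: 5 concentrations. Exposure: 48 h. Format: 96-well plates. Endpoint: linear interpolation; highest concentration if not reached. TGI marks complete inhibition of growth.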

Assays:
Assay in all cases: inhibition of tumour cell growth, NCI panel, 48 h
NCI-H460 lung = system: NCI-H460 lung
DMS 273 small cell lung = system: DMS 273 small cell lung
SK-MEL-28 melanoma = system: SK-MEL-28 melanoma
DMS 114 small cell lung = system: DMS 114 small cell lung
786-0 renal = system: 786-0 renal
HL-60(TB) leukemia = system: HL-60(TB) leukemia
M19-MEL melanoma = system: M19-MEL melanoma
HCT-15 colon = system: HCT-15 colon
K-562 leukemia = system: K-562 leukemia
UACC-62 melanoma = system: UACC-62 melanoma
HOP-62 NSCLC = system: HOP-62 NSCLC
SR leukemia = system: SR leukemia
OVCAR-4 ovarian = system: OVCAR-4 ovarian
COLO 205 colon = system: COLO 205 colon
LXFL 529 NSCLC = system: LXFL 529 NSCLC
HCT-116 colon = system: HCT-116 colon
MDA-MB-231 breast = system: MDA-MB-231 breast

For `CSc1ccc2c(cc1=O)C(NC(=O)c1ccc(OC(C)=O)cc1)CCc1cc(O)c(O)c(O)c1-2` (stereo not drawn), the TGI (NCI-H460 lung) was 50.4 µM, the TGI (DMS 273 small cell lung) was 47.1 µM and the TGI (SK-MEL-28 melanoma) was > 100 µM. For the same compound, the TGI (DMS 114 small cell lung) was 52.4 µM, the TGI (786-0 renal) was > 100 µM and the TGI (HL-60(TB) leukemia) was 21.9 µM. For the same compound, the TGI (M19-MEL melanoma) was 29.2 µM, the TGI (HCT-15 colon) was 34.9 µM and the TGI (K-562 leukemia) was 7.53 µM. For the same compound, the TGI (UACC-62 melanoma) was 36.3 µM, the TGI (HOP-62 NSCLC) was > 100 µM and the TGI (SR leukemia) was 35.3 µM. For the same compound, the TGI (OVCAR-4 ovarian) was 22 µM, the TGI (COLO 205 colon) was 30.8 µM and the TGI (LXFL 529 NSCLC) was 35.2 µM. It also gave a TGI (HCT-116 colon) of 31.1 µM.

`NC(=S)N1N=C2c3ccccc3CC[C@H]2[C@@H]1c1cccs1` was tested, and the TGI (NCI-H460 lung) was > 100 µM, the TGI (DMS 273 small cell lung) was 36.6 µM and the TGI (SK-MEL-28 melanoma) was > 100 µM. For the same compound, the TGI (DMS 114 small cell lung) was 61.1 µM, the TGI (786-0 renal) was > 100 µM and the TGI (HL-60(TB) leukemia) was 42.8 µM. The TGI (M19-MEL melanoma) was > 100 µM, the TGI (HCT-15 colon) was > 100 µM and the TGI (K-562 leukemia) was 35.5 µM. For the same compound, the TGI (UACC-62 melanoma) was > 100 µM, the TGI (HOP-62 NSCLC) was > 100 µM and the TGI (SR leukemia) was 63 µM. The TGI (OVCAR-4 ovarian) was > 100 µM, the TGI (COLO 205 colon) was 40 µM and the TGI (LXFL 529 NSCLC) was > 100 µM. For the same compound, the TGI (HCT-116 colon) was > 100 µM.

`N#CC(C#N)=C(N)/C(C#N)=C/c1cc(O)c(O)c(Br)c1` was tested, and the TGI (NCI-H460 lung) was > 100 µM, the TGI (DMS 273 small cell lung) was > 100 µM and the TGI (SK-MEL-28 melanoma) was > 100 µM. The TGI (DMS 114 small cell lung) was 88.5 µM, the TGI (786-0 renal) was > 100 µM and the TGI (HL-60(TB) leukemia) was > 92.3 µM. For the same compound, the TGI (M19-MEL melanoma) was > 100 µM, the TGI (HCT-15 colon) was > 100 µM and the TGI (K-562 leukemia) was > 100 µM. For the same compound, the TGI (UACC-62 melanoma) was > 100 µM, the TGI (HOP-62 NSCLC) was > 100 µM and the TGI (MDA-MB-231 breast) was > 100 µM. For the same compound, the TGI (SR leukemia) was > 100 µM, the TGI (OVCAR-4 ovarian) was > 100 µM and the TGI (COLO 205 colon) was > 100 µM. For the same compound, the TGI (LXFL 529 NSCLC) was > 100 µM and the TGI (HCT-116 colon) was > 100 µM.

`O=c1c2ccccc2nc(-c2ccccc2)n1NC(=S)Nc1ccc(Cl)cc1[N+](=O)[O-]` was tested, and the TGI (NCI-H460 lung) was > 100 µM, the TGI (DMS 273 small cell lung) was > 100 µM and the TGI (SK-MEL-28 melanoma) was 82.4 µM. The TGI (DMS 114 small cell lung) was > 100 µM, the TGI (786-0 renal) was > 100 µM and the TGI (HL-60(TB) leukemia) was > 100 µM. For the same compound, the TGI (M19-MEL melanoma) was > 100 µM, the TGI (HCT-15 colon) was > 100 µM and the TGI (K-562 leukemia) was > 100 µM. The TGI (UACC-62 melanoma) was > 100 µM, the TGI (HOP-62 NSCLC) was > 100 µM and the TGI (SR leukemia) was > 100 µM. The TGI (OVCAR-4 ovarian) was > 100 µM, the TGI (COLO 205 colon) was > 100 µM and the TGI (LXFL 529 NSCLC) was > 100 µM. For the same compound, the TGI (HCT-116 colon) was > 100 µM.

`O=C1C2CCC(C2)C12CC1(c3ccccc3)C(=O)c3ccccc3N1O2` (stereo not drawn) was tested, and the TGI (DMS 273 small cell lung) was > 100 µM, the TGI (SK-MEL-28 melanoma) was > 100 µM and the TGI (DMS 114 small cell lung) was > 100 µM. For the same compound, the TGI (786-0 renal) was > 100 µM, the TGI (HL-60(TB) leukemia) was > 100 µM and the TGI (M19-MEL melanoma) was > 100 µM. For the same compound, the TGI (HCT-15 colon) was > 100 µM, the TGI (K-562 leukemia) was > 100 µM and the TGI (UACC-62 melanoma) was > 100 µM. For the same compound, the TGI (HOP-62 NSCLC) was > 100 µM, the TGI (SR leukemia) was > 100 µM and the TGI (OVCAR-4 ovarian) was > 100 µM. For the same compound, the TGI (COLO 205 colon) was > 100 µM, the TGI (LXFL 529 NSCLC) was > 100 µM and the TGI (HCT-116 colon) was > 100 µM.

With `COc1ccc([N-]/C(=N\n2c(=O)c(C)nn(C)c2=S)N(c2ccc(OC)cc2)c2nn3c(=O)c(C)n[n+](C)c3s2)cc1` the TGI (NCI-H460 lung) was > 100 µM, the TGI (DMS 273 small cell lung) was > 100 µM and the TGI (SK-MEL-28 melanoma) was > 100 µM. The TGI (DMS 114 small cell lung) was > 100 µM, the TGI (786-0 renal) was > 100 µM and the TGI (HL-60(TB) leukemia) was > 100 µM. For the same compound, the TGI (M19-MEL melanoma) was > 100 µM, the TGI (HCT-15 colon) was > 100 µM and the TGI (K-562 leukemia) was > 100 µM. The TGI (UACC-62 melanoma) was > 100 µM, the TGI (HOP-62 NSCLC) was > 100 µM and the TGI (SR leukemia) was > 100 µM. The TGI (OVCAR-4 ovarian) was > 100 µM, the TGI (COLO 205 colon) was > 100 µM and the TGI (LXFL 529 NSCLC) was > 100 µM. The TGI (HCT-116 colon) was > 100 µM.

In the case of `CC(=O)OC1CC2(c3ccccc3)C(=O)c3ccccc3N2O1` (stereo not drawn), the TGI (DMS 273 small cell lung) is reported as > 100 µM, the TGI (SK-MEL-28 melanoma) is reported as > 100 µM and the TGI (DMS 114 small cell lung) is reported as > 100 µM. The TGI (786-0 renal) was > 100 µM, the TGI (HL-60(TB) leukemia) was > 100 µM and the TGI (M19-MEL melanoma) was > 100 µM. The TGI (HCT-15 colon) was > 100 µM, the TGI (K-562 leukemia) was > 100 µM and the TGI (UACC-62 melanoma) was > 100 µM. The TGI (HOP-62 NSCLC) was > 100 µM, the TGI (SR leukemia) was > 100 µM and the TGI (OVCAR-4 ovarian) was > 100 µM. For the same compound, the TGI (COLO 205 colon) was > 100 µM, the TGI (LXFL 529 NSCLC) was > 100 µM and the TGI (HCT-116 colon) was > 100 µM.

In the case of `CCN(CC)C(=S)SC1CCOP(=O)(N(CCCl)CCCl)N1C` (stereo not drawn), the TGI (NCI-H460 lung) is reported as 14.3 µM, the TGI (DMS 273 small cell lung) is reported as > 79.4 µM and the TGI (SK-MEL-28 melanoma) is reported as 42.2 µM. The TGI (DMS 114 small cell lung) was 0.553 µM, the TGI (786-0 renal) was > 80.1 µM and the TGI (HL-60(TB) leukemia) was 32.2 µM. For the same compound, the TGI (M19-MEL melanoma) was 14.8 µM, the TGI (HCT-15 colon) was 91.5 µM and the TGI (K-562 leukemia) was 49.9 µM. The TGI (UACC-62 melanoma) was 17.3 µM, the TGI (HOP-62 NSCLC) was > 100 µM and the TGI (MDA-MB-231 breast) was > 100 µM. The TGI (SR leukemia) was 50 µM, the TGI (OVCAR-4 ovarian) was 46.4 µM and the TGI (LXFL 529 NSCLC) was 19.3 µM. The TGI (HCT-116 colon) was > 48.5 µM.

With `CC12CC[C@H](O)C(C)(C)[C@H]1CC[C@](C)(O)C2COc1ccc2ccc(=O)oc2c1` (stereo partly drawn) the TGI (NCI-H460 lung) was > 100 µM, the TGI (DMS 273 small cell lung) was > 100 µM and the TGI (SK-MEL-28 melanoma) was > 100 µM. The TGI (DMS 114 small cell lung) was > 100 µM, the TGI (786-0 renal) was > 100 µM and the TGI (HL-60(TB) leukemia) was > 100 µM. For the same compound, the TGI (M19-MEL melanoma) was > 100 µM, the TGI (HCT-15 colon) was > 100 µM and the TGI (K-562 leukemia) was > 100 µM. For the same compound, the TGI (UACC-62 melanoma) was > 100 µM, the TGI (HOP-62 NSCLC) was > 100 µM and the TGI (SR leukemia) was > 100 µM. For the same compound, the TGI (OVCAR-4 ovarian) was > 100 µM, the TGI (COLO 205 colon) was > 100 µM and the TGI (LXFL 529 NSCLC) was > 100 µM. For the same compound, the TGI (HCT-116 colon) was > 100 µM.
